Reference: patent US9067937B2 (priority 2012, dated 2015)
Structures can show the parent of a compound that is named as a salt.

Key:
MELK = MELK (Homo sapiens, UniProt Q14680); test: Kinase assay (IMAP fluorescence polarization, FITC-labeled histone H3 peptide); assay type: biochemical; settings: 50 micro-M ATP
How it was run: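 Kinase (0.8 ng/μL) reacted with 100 nM FITC-histone H3 peptide and 50 μM ATP in 20 mM HEPES, 0.3 mM MgCl2, 2 mM DTT, 0.01% Tween-20, pH 7.4, for 1 hour at room temperature. Phosphorylation read by IMAP fluorescence polarization after adding binding solution; IC50 from four-parameter fit.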

HT1197 cells = test: Cell-based assay, anti-proliferative activity, MELK-negative control (Cell Counting Kit-8, 72 hours); design: species or system human; settings: Homo sapiens, HT1197, 72 h, read-out: IC50 (μM) (HTll97)
Method: 100 micro-L of cell suspension was seeded onto 96-well microtiter plate (ViewPlate-96FTC, PerkinElmer). The initial cell concentration of 22Rv1, T47D, A549, DU4475, and HT1197 were 3,000 cells/well, 2,000 cells/well and 2,500 cells/well, respectively. Cellular growth was determined using Cell Counting Kit-8 (DOJINDO) at 72 hours after the exposure of the candidate inhibitors. […] Accurate IC50 values were calculated as described previously.

DU4475 cells = test: Cell-based assay, anti-proliferative activity (Cell Counting Kit-8, 72 hours); design: species or system human; settings: Homo sapiens, DU-4475, 72 h, read-out: IC50 (μM) (DU4475)
How it was run: (§1)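 Cells seeded at 2,000–3,000 cells/well and exposed to candidate MELK inhibitors for 72 hours; growth measured with Cell Counting Kit-8. IC50 values calculated from the growth read-out.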

22Rv1 cells = test: as above; design: species or system human; settings: Homo sapiens, 22Rv1, 72 h, read-out: IC50 (μM) (22Rvl)
How it was run: as §1

T47D cells = test: as above; design: species or system human; settings: Homo sapiens, T47D, 72 h, read-out: IC50 (μM) (T47D)
How it was run: as §1

A549 cells = test: as above; design: species or system human; settings: Homo sapiens, A549, 72 h, read-out: IC50 (μM) (A549)
How it was run: as §1

Chain of MELK (Q14680 whole entry, looked up): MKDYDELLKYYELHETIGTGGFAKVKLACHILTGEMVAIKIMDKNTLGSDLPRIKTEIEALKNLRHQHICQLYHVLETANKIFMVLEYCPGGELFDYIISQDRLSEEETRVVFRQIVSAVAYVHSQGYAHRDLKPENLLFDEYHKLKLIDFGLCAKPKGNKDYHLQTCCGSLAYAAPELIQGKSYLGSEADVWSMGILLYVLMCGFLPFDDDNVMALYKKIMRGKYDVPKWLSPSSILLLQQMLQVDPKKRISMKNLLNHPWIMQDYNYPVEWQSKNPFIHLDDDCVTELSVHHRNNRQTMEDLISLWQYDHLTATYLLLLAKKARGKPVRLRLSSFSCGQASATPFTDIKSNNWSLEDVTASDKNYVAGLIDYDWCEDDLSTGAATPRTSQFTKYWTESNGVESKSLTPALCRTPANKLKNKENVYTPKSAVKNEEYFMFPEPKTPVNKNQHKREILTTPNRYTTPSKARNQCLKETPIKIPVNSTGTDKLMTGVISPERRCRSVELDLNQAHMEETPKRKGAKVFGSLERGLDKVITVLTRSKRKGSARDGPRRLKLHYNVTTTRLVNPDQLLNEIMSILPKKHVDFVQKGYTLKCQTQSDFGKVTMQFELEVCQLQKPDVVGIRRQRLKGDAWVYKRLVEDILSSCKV

## CC(=O)c1cnc2ccc(-c3cc(F)c(O)c(Cl)c3)nc2c1Nc1ccc(N2CCC[C@@H](N)C2)nc1 [Example 96, (R)-1-{4-[6-(3-Aminopiperidin-1-yl)pyridin-3-ylamino]-6-(3-chloro-5-fluoro-4-hydroxyphenyl)-1,5-naphthyridin-3-yl}ethanone]
MELK
  IC50: 0.0036 µM
HT1197 cells
  IC50: 0.43 µM
DU4475 cells
  IC50: 0.024 µM
22Rv1 cells
  IC50: 0.026 µM
T47D cells
  IC50: 0.018 µM
A549 cells
  IC50: 0.035 µM

## CCC(=O)c1cnc2ccc(-c3cc(F)c(O)c(Cl)c3)nc2c1N[C@H]1CC[C@H](CN(C)C)CC1 [Example 205, 1-[6-(3-chloro-5-fluoro-4-hydroxyphenyl)-4-({trans-4-[(dimethylamino)methyl]cyclohexyl}amino)-1,5-naphthyridin-3-yl)]propan-1-one dihydrochloride]
MELK
  IC50: 0.0028 µM
HT1197 cells
  IC50: 0.69 µM
DU4475 cells
  IC50: 0.033 µM
22Rv1 cells
  IC50: 0.022 µM
T47D cells
  IC50: 0.0083 µM
A549 cells
  IC50: 0.032 µM

## CN(C)C[C@H]1CC[C@H](Nc2c(S(C)(=O)=O)cnc3ccc(-c4cc(Cl)c(O)c(Cl)c4)nc23)CC1 [Example 12, 2,6-Dichloro-4-(8-{trans-4-[(dimethylamino)methyl]cyclohexylamino}-7-(methylsulfonyl)-1,5-naphthyridin-2-yl)phenol dihydrochloride]
MELK
  IC50: 0.001 µM
HT1197 cells
  IC50: 0.46 µM
DU4475 cells
  IC50: 0.0045 µM
22Rv1 cells
  IC50: 0.019 µM
T47D cells
  IC50: 0.019 µM
A549 cells
  IC50: 0.053 µM

## CNC1CCN(c2ccc(Nc3c(C(C)=O)cnc4ccc(-c5cc(F)c(O)c(Cl)c5)nc34)cn2)C1 (stereo not drawn) [Example 54, 1-(6-(3-Chloro-5-fluoro-4-hydroxyphenyl)-4-{6-[3-(methylamino)pyrrolidin-1-yl]pyridin-3-ylamino}-1,5-naphthyridin-3-yl)ethanone trihydrochloride]
MELK
  IC50: 0.012 µM
HT1197 cells
  IC50: 3.9 µM
DU4475 cells
  IC50: 0.11 µM
22Rv1 cells
  IC50: 0.086 µM
T47D cells
  IC50: 0.04 µM
A549 cells
  IC50: 0.17 µM

## N[C@H]1CCCN(c2ccc(Nc3c(C(=O)C4CC4)cnc4ccc(-c5cc(Cl)c(O)c(Cl)c5)nc34)cn2)C1 [Example 40, (S)-{4-[6-(3-Aminopiperidin-1-yl)pyridin-3-ylamino]-6-(3,5-dichloro-4-hydroxyphenyl)-1,5-naphthyridin-3-yl}(cyclopropyl)methanone trihydrochloride]
MELK
  IC50: 0.0012 µM
HT1197 cells
  IC50: 4.2 µM
DU4475 cells
  IC50: 0.02 µM
22Rv1 cells
  IC50: 0.034 µM
T47D cells
  IC50: 0.025 µM
A549 cells
  IC50: 0.29 µM

## CC(=O)c1cnc2ccc(-c3cc(Cl)c(O)c(Cl)c3)nc2c1N[C@H]1CC[C@H](NC(=O)C(C)N)CC1 (stereo partly drawn) [Example 73, N-{trans-4-[3-Acetyl-6-(3,5-dichloro-4-hydroxyphenyl)-1,5-naphthyridin-4-ylamino]-cyclohexyl}-2-aminopropanamide dihydrochloride]
MELK
  IC50: 0.0075 µM
HT1197 cells
  IC50: 100 µM
DU4475 cells
  IC50: 0.0043 µM
22Rv1 cells
  IC50: 0.027 µM
T47D cells
  IC50: 0.0086 µM
A549 cells
  IC50: 0.18 µM

## CC(=O)c1cnc2ccc(-c3cc(Cl)c(O)c(Cl)c3)nc2c1Nc1ccc(CCN(C)C)cc1 [Example 29, 1-[6-(3,5-Dichloro-4-hydroxyphenyl)-4-{4-[2-(dimethylamino)ethyl]phenylamino}-1,5-naphthyridin-3-yl)ethanone dihydrochloride]
MELK
  IC50: 0.0026 µM
HT1197 cells
  IC50: 0.68 µM
DU4475 cells
  IC50: 0.028 µM
22Rv1 cells
  IC50: 0.084 µM
T47D cells
  IC50: 0.085 µM
A549 cells
  IC50: 0.11 µM

## CC(=O)c1cnc2ccc(-c3c(C)n[nH]c3C)nc2c1N[C@H]1CC[C@H](CN(C)C)CC1 [Example 58, 1-(6-(3,5-Dimethyl-1H-pyrazol-4-yl)-4-{trans-4-[(dimethylamino)methyl]cyclohexylamino}-1,5-naphthyridin-3-yl)ethanone trihydrochloride]
MELK
  IC50: 1 µM
HT1197 cells
  IC50: 10 µM
DU4475 cells
  IC50: 5.9 µM
22Rv1 cells
  IC50: 6.1 µM
T47D cells
  IC50: 1.6 µM
A549 cells
  IC50: 3 µM

## CN(C)[C@H]1CC[C@H](Nc2c(S(C)(=O)=O)cnc3ccc(-c4cc(Cl)c(O)c(Cl)c4)nc23)CC1 [Example 15, 2,6-Dichloro-4-{8-[trans-4-(dimethylamino)cyclohexylamino]-7-(methylsulfonyl)-1,5-naphthyridin-2-yl}phenol dihydrochloride]
MELK
  IC50: 0.0005 µM
HT1197 cells
  IC50: 2.2 µM
DU4475 cells
  IC50: 0.0027 µM
22Rv1 cells
  IC50: 0.026 µM
T47D cells
  IC50: 0.018 µM
A549 cells
  IC50: 0.092 µM

## CC(=O)c1cnc2ccc(-c3cc(F)c(O)c(Cl)c3)nc2c1N[C@H]1CC[C@H](CN2CCCC2)CC1 [Example 62, 1-(6-(3-Chloro-5-fluoro-4-hydroxyphenyl)-4-{[trans-4-(pyrrolidin-1-ylmethyl)cyclohexyl]amino}-1,5-naphthyridin-3-yl)ethanone dihydrochloride]
MELK
  IC50: 0.0009 µM
HT1197 cells
  IC50: 0.091 µM
DU4475 cells
  IC50: 0.0037 µM
22Rv1 cells
  IC50: 0.0073 µM
T47D cells
  IC50: 0.0034 µM
A549 cells
  IC50: 0.011 µM

## CN(C)Cc1ccc(Nc2c(S(C)(=O)=O)cnc3ccc(-c4cc(F)c(O)c(Cl)c4)nc23)cc1 [Example 17, 2-Chloro-4-(8-{4-[(dimethylamino)methyl]phenylamino}-7-(methylsulfonyl)-1,5-naphthyridin-2-yl)-6-fluorophenol dihydrochloride]
MELK
  IC50: 0.0081 µM
HT1197 cells
  IC50: 6.6 µM
DU4475 cells
  IC50: 0.064 µM
22Rv1 cells
  IC50: 0.33 µM
T47D cells
  IC50: 0.13 µM
A549 cells
  IC50: 0.83 µM

## CC(=O)c1cnc2ccc(-c3cc(Cl)c(O)c(Cl)c3)nc2c1N[C@H]1CC[C@H](CO)CC1 [Example 43, 1-(6-{3,5-Dichloro-4-hydroxyphenyl)-4-[trans-4-(hydroxymethyl)cyclohexyl]amino}-1,5-naphthyridin-3-yl)ethanone hydrochloride]
MELK
  IC50: 0.0031 µM
HT1197 cells
  IC50: 0.64 µM
DU4475 cells
  IC50: 0.019 µM
22Rv1 cells
  IC50: 0.085 µM
T47D cells
  IC50: 0.024 µM
A549 cells
  IC50: 0.057 µM

## COc1ccc(-c2ccc3ncc(C(C)=O)c(N[C@H]4CC[C@H](CN(C)C)CC4)c3n2)cc1 [Example 84, 1-(4-{trans-4-[(Dimethylamino)methyl]cyclohexylamino}-6-(4-methoxyphenyl)-1,5-naphthyridin-3-yl)ethanone dihydrochloride]
MELK
  IC50: 0.031 µM
HT1197 cells
  IC50: 6 µM
DU4475 cells
  IC50: 5.2 µM
22Rv1 cells
  IC50: 0.58 µM
T47D cells
  IC50: 0.25 µM
A549 cells
  IC50: 2.4 µM

## CC(=O)c1cnc2ccc(-c3cc(Cl)c(O)c(Cl)c3)nc2c1Nc1ccc(CN2CCN(C)CC2)cc1 [Example 34, 1-(6-(3,5-Dichloro-4-hydroxyphenyl)-4-(4-((4-methylpiperazin-1-yl)methyl)-phenylamino)-1,5-naphthyridin-3-yl)ethanone trihydrochloride]
MELK
  IC50: 0.0061 µM
HT1197 cells
  IC50: 1.6 µM
DU4475 cells
  IC50: 0.096 µM
22Rv1 cells
  IC50: 0.21 µM
T47D cells
  IC50: 0.11 µM
A549 cells
  IC50: 0.19 µM

## CC(=O)c1cnc2ccc(-c3cc(Cl)c(O)c(Cl)c3)nc2c1Nc1ccc(CN2CCCC2)cc1 [Example 60, dihydrochloride]
MELK
  IC50: 0.0043 µM
HT1197 cells
  IC50: 1.1 µM
DU4475 cells
  IC50: 0.041 µM
22Rv1 cells
  IC50: 0.1 µM
T47D cells
  IC50: 0.066 µM
A549 cells
  IC50: 0.11 µM

## CC(=O)c1cnc2ccc(-c3cc(F)c(O)c(Cl)c3)nc2c1Nc1ccc(N2CCC[C@H](N)C2)nc1 [Example 72, (S)-1-(4-{[6-(3-Aminopiperidin-1-yl)pyridin-3-yl]amino}-6-(3-chloro-5-fluoro-4-hydroxy-phenyl)-1,5-naphthyridin-3-yl)ethanone trihydrochloride]
MELK
  IC50: 0.0043 µM
HT1197 cells
  IC50: 1.2 µM
DU4475 cells
  IC50: 0.014 µM
22Rv1 cells
  IC50: 0.014 µM
T47D cells
  IC50: 0.0053 µM
A549 cells
  IC50: 0.047 µM
